Data on 2 compounds can be found in patent US7585639B1, “Methods for modulating ATP-binding cassette transmembrane reporter protein expression” (Trustees of Dartmouth College, priority 1999, dated 2009).

The structures appear in SMILES notation.

The test system of series [1] is CFTR. The experiment in a line: Trans-epithelial chloride currents, Ussing chamber assay, T84 cells. The class given is cell-based. Here is the method: (§1) The correlation between increased levels and increased functional CFTR in the cell membrane was also examined either by measuring chloride permeability using MQAE fluorescence or trans-epithelial chloride currents using the Ussing chamber assay. […] Dox increased total cellular CFTR protein levels by 1.6- to 2-fold in T84 cells, and levels were maximal at approximately 18 to 24 hours after treatment. […] Dox increased the amount of cell surface-detectable CFTR by approximately 2.5- to 3-fold in these cells. Dox treatment of T84 cells was also determined to increase CFTR-associated chloride currents by approximately 2.1-fold as measured by the Using chamber assay and to increase chloride permeability by approximately 2-fold as measured by MQAE fluorescence in these cells.

Series [2] deals with GFP-Pgp. The conditions noted are these: MDR29 cells.
The subject of series [3] is human ΔF508 CFTR. Briefly: Chloride currents in MDCK-derived cell line stably transfected with human ΔF508 CFTR cDNA (CMV promoter). The class given is cell-based. As to conditions: MDCK cell line expressing human ΔF508 CFTR; statistically significant. The method, then:
(§2) The ability of Dox to increase functional expression of ΔF508 CFTR in a similar manner was then assessed. In initial experiments, the effects of Dox on ΔF508 CFTR expression were examined in a canine kidney MDCK-derived cell line that had been stably transfected with a human ΔF508 CFTR cDNA construct expressed under the control of a CMV promoter. As controls, the effects of Dox on CFTR expression in the wild-type parental MDCK-C7 cells from which the stable cell line was derived and an MDCK-derived cell line stably transfected with GFP-tagged wild-type human CFTR also under the control of the CMV promoter were examined. Dox had no effect on chloride currents in either controls.

Series [4] has as its system MDCK-C7 cells. The experiment in a line: Chloride currents in wild-type parental MDCK-C7 cells (control). The class given is cell-based, canine. Here is the method: as §2
For series [5], the system named is GFP-tagged wild-type human CFTR. The experiment in a line: Chloride currents in MDCK-derived cell line stably transfected with GFP-tagged wild-type human CFTR (control). The class given is cell-based. As to conditions: MDCK cells with GFP-tagged wild-type human CFTR. Here is the method: as §2
Series [6] has as its system CFTR. Briefly: Chloride permeability by MQAE fluorescence, T84 cells. Format: cell-based. Here is the method:
as §1

For series [7], the system named is MDR4, MDR10, MDR29 and parental MDCK-C7 cells. As to conditions: dog, 3 days.
Method: Cells were plated in 96 well plates (Fisher, Medford, Mass.) at a density of 1000 cells per well. Twenty-four hours after plating, the cells were dosed with 0-10 μM Dox in serum-free media as described above. The cells were incubated for three days and assayed using the CellTiter 96 AQueous One Solution Reagent (Promega Corp., Madison, Wis.) using the manufacturer's instructions. The data were collected and analyzed using the Softmax software. A cytotoxicity assay was also performed with cisplatin (0-30 μM) as described above.
The test system of series [8] is wild-type CFTR mRNA expression. The experiment in a line: CFTR mRNA expression in HT-29 human colon cell line. The class given is cell-based. The conditions noted are these: HT-29 cells. Here is the method:
Experiments were performed which identified specific agents that increase functional cell surface expression of the ΔF508 CFTR protein. […] However, a rapid increase in CFTR mRNA to 1.5-fold over controls was seen by 48 hours and remained high through the end of the experiment.

The subject of series [9] is CFTR protein levels. Briefly: CFTR protein levels by western blotting using anti-CFTR antibodies in T84 cells. The class given is cell-based. Here is the method:
as §1

As for `COc1cccc2c1C(=O)c1c(O)c3c(c(O)c1C2=O)C[C@@](O)(C(=O)CO)C[C@@H]3O[C@H]1C[C@H](N)[C@H](O)[C@H](C)O1` [Dox, doxorubicin], the “increase in CFTR-associated chloride currents” value in series [1] was “approximately 2.1 fold”. Also, in series [2] (24-72 hour period after treatment), the “membrane Pgp levels” value was “progressive and substantial increase”. Besides, the “cellular GFP levels” value in series [2] (compared with Pgp membrane levels) was “increased earlier and to a greater extent”. The “increase in chloride currents” value in series [3] is “approximately 1.7 fold”. Besides, the “effect on chloride currents” value in [4] and in series [5] was “no effect” each time. In series [6], the “increase in chloride permeability” value is recorded as “approximately 2 fold”. Besides, the “EC50 for cytotoxicity (colony formation), MDR cell lines relative to parental cell line” value in series [7] is on record as 2.5-3.5 fold.
In the case of `CO[C@@]12[C@H](COC(N)=O)C3=C(C(=O)C(C)=C(N)C3=O)N1C[C@@H]1N[C@@H]12` [MMC, mitomycin C], the “increase in CFTR-associated chloride currents” value in [1] is “approximately 1.2 fold”. In addition, the “effect on CFTR mRNA expression” value in series [8] (between 0 and 36 hours after treatment) is on record as “Little or no effect”. The “increase in CFTR mRNA over controls” value in series [8] (by 48 hours, remained high through end of experiment) amounted to 1.5 fold. Moreover, in [8] (single non-toxic treatment, over 72 hours), the “CFTR mRNA expression over a 72 hour period” value is “significant increase”. In addition, the “mature CFTR protein levels” value in series [9] was “significantly increased”.
